Assays:
[1] = target: Serine/threonine-protein kinase pim-3 (Homo sapiens) (UniProt Q86V86); settings: Compound concentration 1000.0 nM
[2] = target: T1, Alpha-2B adrenergic receptor (Homo sapiens) (UniProt P18089); assay: alpha 2B (h) CEREP ligand profiling; settings: Compound concentration 10.0 uM
T1 sequence (whole entry): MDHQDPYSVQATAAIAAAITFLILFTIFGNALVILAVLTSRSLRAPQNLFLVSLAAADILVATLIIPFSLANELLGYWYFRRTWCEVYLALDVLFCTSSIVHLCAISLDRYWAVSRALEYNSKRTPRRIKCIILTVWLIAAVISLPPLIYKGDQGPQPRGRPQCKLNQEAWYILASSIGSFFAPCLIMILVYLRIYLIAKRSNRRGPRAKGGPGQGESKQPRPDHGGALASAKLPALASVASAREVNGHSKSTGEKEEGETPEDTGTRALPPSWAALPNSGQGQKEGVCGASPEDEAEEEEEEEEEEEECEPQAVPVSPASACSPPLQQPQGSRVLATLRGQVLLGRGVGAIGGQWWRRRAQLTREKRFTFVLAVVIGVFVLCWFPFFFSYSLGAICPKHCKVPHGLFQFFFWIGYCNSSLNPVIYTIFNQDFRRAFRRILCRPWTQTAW

[3] = target: D(2) dopamine receptor (Homo sapiens) (UniProt P14416); assay: D2S (h) CEREP ligand profiling; settings: Compound concentration 10.0 uM
[4] = tested on: Receptor-type tyrosine-protein kinase FLT3 (Homo sapiens), P36888 [D835H]; settings: Compound concentration 1000.0 nM
[5] = target: Serine/threonine-protein kinase/endoribonuclease IRE1 (Homo sapiens) (UniProt O75460); settings: Compound concentration 1000.0 nM
[6] = target: Sodium-dependent serotonin transporter (Homo sapiens) (UniProt P31645); assay: 5-HT transporter (h) CEREP ligand profiling; settings: Compound concentration 10.0 uM
[7] = target: Calcium-activated potassium channel (Homo sapiens) (UniProt Q92952+Q9UGI6+Q12791+O15554+Q9H2S1+A8MYU2); assay: SK+Ca channel CEREP ligand profiling; type: protein assay; settings: Compound concentration 10.0 uM
[8] = target: Gastrin/cholecystokinin type B receptor (Homo sapiens) (UniProt P32239); assay: CCKB (h) (CCK2) CEREP ligand profiling; settings: Compound concentration 10.0 uM
[9] = target: Sodium- and chloride-dependent GABA transporter 1 (Homo sapiens) (UniProt P30531); assay: GABA transporter CEREP ligand profiling; settings: Compound concentration 10.0 uM
[10] = target: Interleukin-1 receptor-associated kinase 4 (Homo sapiens) (UniProt Q9NWZ3); settings: Compound concentration 1000.0 nM
[11] = target: Cyclin-dependent kinase 3 (Homo sapiens) (UniProt Q00526); settings: Compound concentration 1000.0 nM
[12] = target: Voltage-gated L-type calcium channel (diltiazem site) (Homo sapiens, UniProt O60840+Q01668+Q13698+Q13936); assay: Ca2+ channel (L, diltiazem site) CEREP ligand profiling; type: protein assay; settings: compound concentration 10 uM
[13] = target: Mitogen-activated protein kinase kinase kinase 7 (Homo sapiens) (UniProt O43318); settings: Compound concentration 1000.0 nM
[14] = target: Mitogen-activated protein kinase 6 (Homo sapiens) (UniProt Q16659); settings: Compound concentration 1000.0 nM
[15] = target: Serine/threonine-protein kinase pim-1 (Homo sapiens) (UniProt P11309); settings: Compound concentration 1000.0 nM
[16] = target: High affinity nerve growth factor receptor (Homo sapiens) (UniProt P04629); settings: Compound concentration 1000.0 nM
[17] = target: Dual specificity testis-specific protein kinase 1 (Homo sapiens) (UniProt Q15569); settings: Compound concentration 1000.0 nM
[18] = tested on: Epidermal growth factor receptor (Homo sapiens), P00533 [UNDEFINED MUTATION]; settings: Compound concentration 1000.0 nM
[19] = target: Cyclin-dependent kinase-like 2 (Homo sapiens) (UniProt Q92772); settings: Compound concentration 1000.0 nM
[20] = target: D(2) dopamine receptor (Homo sapiens) (UniProt P14416); assay: D2S (h) (agonist site) CEREP ligand profiling; settings: Compound concentration 10.0 uM
[21] = tested on: Proto-oncogene tyrosine-protein kinase receptor Ret (Homo sapiens), P07949 [M918T]; settings: Compound concentration 1000.0 nM
[22] = target: Matrix metalloproteinase-9 (Homo sapiens) (UniProt P14780); assay: MMP-9 (h) CEREP ligand profiling; settings: Compound concentration 10.0 uM
[23] = target: Homeodomain-interacting protein kinase 2 (Homo sapiens) (UniProt Q9H2X6); settings: Compound concentration 1000.0 nM
[24] = target: Cyclin-dependent kinase 4 (Homo sapiens) (UniProt P11802); settings: Compound concentration 1000.0 nM
[25] = target: NUAK family SNF1-like kinase 2 (Homo sapiens) (UniProt Q9H093); settings: Compound concentration 1000.0 nM
[26] = target: T2, D(4) dopamine receptor (Homo sapiens) (UniProt P21917); assay: D4.4 (h) CEREP ligand profiling; settings: Compound concentration 10.0 uM
T2 sequence (whole entry): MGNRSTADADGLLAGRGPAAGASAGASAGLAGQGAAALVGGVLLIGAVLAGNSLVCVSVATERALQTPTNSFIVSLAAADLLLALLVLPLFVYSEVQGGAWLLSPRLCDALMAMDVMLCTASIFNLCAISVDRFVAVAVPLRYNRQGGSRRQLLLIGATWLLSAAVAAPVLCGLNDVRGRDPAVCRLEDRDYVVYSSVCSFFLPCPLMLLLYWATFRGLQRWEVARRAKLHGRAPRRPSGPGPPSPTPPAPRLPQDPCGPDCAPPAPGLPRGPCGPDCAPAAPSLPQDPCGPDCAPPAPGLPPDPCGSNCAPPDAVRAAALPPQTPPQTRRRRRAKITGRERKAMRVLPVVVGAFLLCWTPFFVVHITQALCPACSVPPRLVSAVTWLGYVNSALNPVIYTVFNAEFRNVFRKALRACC

[27] = target: Serine/threonine-protein kinase 38 (Homo sapiens) (UniProt Q15208); settings: Compound concentration 1000.0 nM
[28] = target: Kappa-type opioid receptor (Homo sapiens) (UniProt P41145); assay: kappa (KOP) CEREP ligand profiling; settings: Compound concentration 10.0 uM
[29] = Glycine (strychnine-insensitive) CEREP ligand profiling; settings: Compound concentration 10.0 uM
[30] = target: SRSF protein kinase 2 (Homo sapiens) (UniProt P78362); settings: Compound concentration 1000.0 nM
[31] = target: Serine/threonine-protein kinase ULK3 (Homo sapiens) (UniProt Q6PHR2); settings: Compound concentration 1000.0 nM
[32] = target: 5-hydroxytryptamine receptor 2B (Homo sapiens) (UniProt P41595); assay: 5-HT2B (h) (agonist site/DOI) CEREP ligand profiling; settings: Compound concentration 10.0 uM
[33] = target: Mitogen-activated protein kinase kinase kinase 14 (Homo sapiens) (UniProt Q99558); settings: Compound concentration 1000.0 nM
[34] = target: Calcium/calmodulin-dependent protein kinase type II subunit alpha (Homo sapiens) (UniProt Q9UQM7); assay: CaMK2alpha (h) CEREP ligand profiling; settings: Compound concentration 10.0 uM

Chain of D(2) dopamine receptor (Homo sapiens) (P14416 whole entry): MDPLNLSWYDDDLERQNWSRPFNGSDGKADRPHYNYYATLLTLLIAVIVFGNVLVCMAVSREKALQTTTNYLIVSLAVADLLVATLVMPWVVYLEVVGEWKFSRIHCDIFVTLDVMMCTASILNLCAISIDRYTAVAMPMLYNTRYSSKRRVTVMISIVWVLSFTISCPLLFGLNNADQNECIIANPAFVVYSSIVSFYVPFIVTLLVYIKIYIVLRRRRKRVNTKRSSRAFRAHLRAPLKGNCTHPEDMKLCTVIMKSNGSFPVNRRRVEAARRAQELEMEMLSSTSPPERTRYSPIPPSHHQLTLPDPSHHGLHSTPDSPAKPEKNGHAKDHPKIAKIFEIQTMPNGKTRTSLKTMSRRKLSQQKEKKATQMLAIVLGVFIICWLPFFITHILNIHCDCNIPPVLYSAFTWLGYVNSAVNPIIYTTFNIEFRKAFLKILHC
Chain of Mitogen-activated protein kinase 6 (Homo sapiens) (Q16659 whole entry): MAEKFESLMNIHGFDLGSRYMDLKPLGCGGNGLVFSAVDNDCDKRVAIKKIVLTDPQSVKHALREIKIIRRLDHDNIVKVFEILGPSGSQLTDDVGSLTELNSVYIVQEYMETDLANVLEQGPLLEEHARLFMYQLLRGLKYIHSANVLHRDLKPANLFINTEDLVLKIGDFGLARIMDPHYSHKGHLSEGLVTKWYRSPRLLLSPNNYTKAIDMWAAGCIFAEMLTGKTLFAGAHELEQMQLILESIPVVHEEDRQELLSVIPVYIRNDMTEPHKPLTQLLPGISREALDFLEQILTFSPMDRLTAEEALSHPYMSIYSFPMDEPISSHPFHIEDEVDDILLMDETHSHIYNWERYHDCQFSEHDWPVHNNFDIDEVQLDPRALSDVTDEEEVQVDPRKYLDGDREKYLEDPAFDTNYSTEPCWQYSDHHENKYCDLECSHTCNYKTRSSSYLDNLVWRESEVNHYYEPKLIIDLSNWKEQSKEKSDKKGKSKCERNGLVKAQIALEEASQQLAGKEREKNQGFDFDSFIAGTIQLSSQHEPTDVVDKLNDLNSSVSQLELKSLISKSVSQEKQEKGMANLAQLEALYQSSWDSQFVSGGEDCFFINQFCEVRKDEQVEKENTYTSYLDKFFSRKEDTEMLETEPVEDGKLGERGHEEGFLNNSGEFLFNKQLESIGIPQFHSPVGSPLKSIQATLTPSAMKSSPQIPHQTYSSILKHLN
Chain of NUAK family SNF1-like kinase 2 (Homo sapiens) (Q9H093 whole entry): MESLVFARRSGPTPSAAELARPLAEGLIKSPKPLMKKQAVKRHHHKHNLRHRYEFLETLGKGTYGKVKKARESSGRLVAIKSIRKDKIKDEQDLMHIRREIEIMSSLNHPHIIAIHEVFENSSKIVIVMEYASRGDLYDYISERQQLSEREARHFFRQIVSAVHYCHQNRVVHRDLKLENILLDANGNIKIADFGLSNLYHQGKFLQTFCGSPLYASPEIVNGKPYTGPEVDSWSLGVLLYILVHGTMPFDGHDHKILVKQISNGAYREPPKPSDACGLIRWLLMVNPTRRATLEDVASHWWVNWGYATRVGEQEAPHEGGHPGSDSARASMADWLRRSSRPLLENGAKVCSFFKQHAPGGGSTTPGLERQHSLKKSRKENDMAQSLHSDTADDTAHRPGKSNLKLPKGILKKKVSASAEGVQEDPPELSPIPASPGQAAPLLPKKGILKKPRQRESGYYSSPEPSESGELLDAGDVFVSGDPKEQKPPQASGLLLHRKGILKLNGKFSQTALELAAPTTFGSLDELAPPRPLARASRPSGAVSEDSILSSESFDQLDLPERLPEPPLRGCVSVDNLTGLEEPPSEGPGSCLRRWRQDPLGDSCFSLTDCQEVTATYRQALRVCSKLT
Chain of Mitogen-activated protein kinase kinase kinase 14 (Homo sapiens) (Q99558 whole entry, looked up): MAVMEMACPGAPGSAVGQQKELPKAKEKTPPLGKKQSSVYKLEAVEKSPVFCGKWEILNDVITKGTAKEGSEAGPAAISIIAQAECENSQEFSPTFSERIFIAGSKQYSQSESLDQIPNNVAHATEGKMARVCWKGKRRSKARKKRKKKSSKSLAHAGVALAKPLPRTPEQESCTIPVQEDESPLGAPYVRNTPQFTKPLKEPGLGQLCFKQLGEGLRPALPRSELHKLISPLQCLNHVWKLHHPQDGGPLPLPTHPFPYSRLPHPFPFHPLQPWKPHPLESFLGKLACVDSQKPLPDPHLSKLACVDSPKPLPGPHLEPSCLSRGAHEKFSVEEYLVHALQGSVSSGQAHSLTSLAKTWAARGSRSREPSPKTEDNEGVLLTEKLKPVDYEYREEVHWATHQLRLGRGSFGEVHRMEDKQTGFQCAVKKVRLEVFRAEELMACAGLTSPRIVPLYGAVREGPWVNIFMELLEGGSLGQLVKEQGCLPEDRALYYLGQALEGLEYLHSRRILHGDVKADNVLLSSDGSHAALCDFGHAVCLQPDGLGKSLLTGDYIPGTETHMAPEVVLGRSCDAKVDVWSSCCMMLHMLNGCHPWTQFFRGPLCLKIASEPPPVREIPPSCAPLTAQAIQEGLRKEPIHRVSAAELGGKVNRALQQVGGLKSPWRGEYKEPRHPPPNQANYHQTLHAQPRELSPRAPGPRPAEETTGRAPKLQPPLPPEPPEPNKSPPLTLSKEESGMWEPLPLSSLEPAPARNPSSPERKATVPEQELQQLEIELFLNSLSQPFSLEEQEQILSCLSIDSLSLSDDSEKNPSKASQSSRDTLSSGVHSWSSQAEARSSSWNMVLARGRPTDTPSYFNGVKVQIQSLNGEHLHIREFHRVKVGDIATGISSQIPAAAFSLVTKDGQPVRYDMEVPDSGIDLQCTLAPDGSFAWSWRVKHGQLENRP
Chain of Mitogen-activated protein kinase kinase kinase 7 (Homo sapiens) (O43318 whole entry): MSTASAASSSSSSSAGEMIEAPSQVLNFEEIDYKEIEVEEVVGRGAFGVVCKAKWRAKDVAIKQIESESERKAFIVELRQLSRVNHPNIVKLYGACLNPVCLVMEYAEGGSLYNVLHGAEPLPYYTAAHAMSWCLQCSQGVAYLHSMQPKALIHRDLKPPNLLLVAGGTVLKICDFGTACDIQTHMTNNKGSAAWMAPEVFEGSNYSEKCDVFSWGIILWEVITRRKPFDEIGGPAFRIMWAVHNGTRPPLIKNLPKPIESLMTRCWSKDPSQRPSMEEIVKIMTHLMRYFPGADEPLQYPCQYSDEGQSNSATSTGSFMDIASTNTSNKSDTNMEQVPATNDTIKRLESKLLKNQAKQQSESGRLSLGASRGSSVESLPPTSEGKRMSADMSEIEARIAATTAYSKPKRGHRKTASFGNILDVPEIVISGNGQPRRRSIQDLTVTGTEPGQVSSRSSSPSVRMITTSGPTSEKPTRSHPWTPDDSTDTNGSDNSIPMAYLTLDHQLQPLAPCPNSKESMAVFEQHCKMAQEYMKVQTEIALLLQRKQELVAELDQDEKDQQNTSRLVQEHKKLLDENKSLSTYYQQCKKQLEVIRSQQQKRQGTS
Chain of Serine/threonine-protein kinase/endoribonuclease IRE1 (Homo sapiens) (O75460 19-977 limits assumed): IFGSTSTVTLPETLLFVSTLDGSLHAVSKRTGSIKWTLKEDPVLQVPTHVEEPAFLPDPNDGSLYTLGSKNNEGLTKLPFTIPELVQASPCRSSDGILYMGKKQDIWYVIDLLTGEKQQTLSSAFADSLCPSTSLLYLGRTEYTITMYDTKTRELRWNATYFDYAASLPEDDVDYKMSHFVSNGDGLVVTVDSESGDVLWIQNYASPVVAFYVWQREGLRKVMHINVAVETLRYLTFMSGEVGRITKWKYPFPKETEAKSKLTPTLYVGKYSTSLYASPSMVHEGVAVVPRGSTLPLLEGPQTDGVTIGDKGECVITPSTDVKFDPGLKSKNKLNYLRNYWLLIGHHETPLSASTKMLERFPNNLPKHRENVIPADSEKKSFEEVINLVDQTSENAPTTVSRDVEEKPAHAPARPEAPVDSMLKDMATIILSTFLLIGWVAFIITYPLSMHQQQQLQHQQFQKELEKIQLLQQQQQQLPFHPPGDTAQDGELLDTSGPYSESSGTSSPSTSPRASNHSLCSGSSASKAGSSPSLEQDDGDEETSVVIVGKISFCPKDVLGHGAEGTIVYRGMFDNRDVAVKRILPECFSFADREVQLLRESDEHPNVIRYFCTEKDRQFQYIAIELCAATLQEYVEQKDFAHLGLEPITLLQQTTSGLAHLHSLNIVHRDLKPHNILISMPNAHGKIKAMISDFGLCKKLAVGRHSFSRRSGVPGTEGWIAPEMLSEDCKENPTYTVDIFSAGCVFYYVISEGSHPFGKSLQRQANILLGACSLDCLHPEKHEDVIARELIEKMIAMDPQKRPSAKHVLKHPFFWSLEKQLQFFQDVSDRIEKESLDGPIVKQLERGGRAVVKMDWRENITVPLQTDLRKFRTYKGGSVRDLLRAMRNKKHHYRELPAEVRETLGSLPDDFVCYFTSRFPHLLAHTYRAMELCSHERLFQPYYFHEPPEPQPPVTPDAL
Chain of Cyclin-dependent kinase 3 (Homo sapiens) (Q00526 whole entry, looked up): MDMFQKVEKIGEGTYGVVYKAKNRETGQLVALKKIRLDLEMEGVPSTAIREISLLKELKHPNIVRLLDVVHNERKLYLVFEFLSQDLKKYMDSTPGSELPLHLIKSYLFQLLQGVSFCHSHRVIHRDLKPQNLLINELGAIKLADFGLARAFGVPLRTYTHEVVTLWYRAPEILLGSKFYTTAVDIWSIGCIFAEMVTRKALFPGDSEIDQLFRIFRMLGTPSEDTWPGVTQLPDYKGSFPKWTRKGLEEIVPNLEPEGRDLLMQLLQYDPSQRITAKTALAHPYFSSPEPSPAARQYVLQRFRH

## COc1ccc2cc(OCC3(C(=O)O)CN(C(=O)c4ccc(F)cc4)C3)ccc2c1 [PF-04418948]
[1]
  residual activity: 98%
[2]
  inhibition: 1%
[3]
  inhibition: -2%
[4]
  residual activity: 71%
[5]
  residual activity: 80%
[6]
  inhibition: -8%
[7]
  inhibition: -1%
[8]
  inhibition: -8%
[9]
  inhibition: 14%
[10]
  residual activity: 87%
[11]
  residual activity: 83%
[12]
  inhibition at 10 µM: 6% (not active)
[13]
  residual activity: 96%
[14]
  residual activity: 88%
[15]
  residual activity: 96%
[16]
  residual activity: 71%
[17]
  residual activity: 98%
[18]
  residual activity: 87%
[19]
  residual activity: 89%
[20]
  inhibition: -6%
[21]
  residual activity: 75%
[22]
  inhibition: 10%
[23]
  residual activity: 78%
[24]
  residual activity: 90%
[25]
  residual activity: 92%
[26]
  inhibition: -8%
[27]
  residual activity: 98%
[28]
  inhibition: 46%
[29]
  inhibition: 11%
[30]
  residual activity: 84%
[31]
  residual activity: 86%
[32]
  inhibition: 13%
[33]
  residual activity: 82%
[34]
  inhibition: 5%

Reference: ChEMBL document CHEMBL4507298 (2021)
